Experimental data from patent publication US8604016B2, “Heterocyclic inhibitors of glutaminase” (Calithera Biosciences Inc., priority 2011, dated 2013).

What was measured:
[1] = target: recombinant form of Glutaminase 1 (GAC) (Homo sapiens, UniProt O94925); assay: Recombinant Enzyme Assay (GAC coupled to GDH, NADH absorbance, no preincubation); type: biochemical; details: no preincubation; read-out: GAC Delta N2 IC50 no preinc
How it was run: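 GAC (4 nM) in Tris-HCl pH 8.0 with 150 mM K2HPO4, EDTA, BSA, DTT, plus 4 units/ml GDH and 4 mM ADP, without preincubation. Absorbance at 340 nm was read kinetically for 15 min at 20° C. Slopes (mAU/min) were compared with DMSO-only and control-compound wells on the same plate.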

[2] = system: HCT116 colon carcinoma xenograft; assay: Xenograft Efficacy Studies (HCT116 colon carcinoma xenograft); type: in vivo, scid/bg mice; details: intraperitoneal administration twice daily to mice, FIG. 1
Experimental: Certain compounds were assayed for in vivo efficacy in xenograft models as follows.
Female scid/bg mice, approximately 6 weeks of age, were implanted subcutaneously on the right flank with 5×10^6 HCT116 cells per mouse in a volume of 100 uL of sterile PBS. When tumors reached a volume of 50-100 mm^3, mice were randomized to groups of n=10 to receive either vehicle or test compound delivered twice daily by intraperitoneal injection. Tumors were measured three times per week using Vernier calipers and tumor volume calculated using the formula: Volume=(Length×Width^2/2), where length and width are the longest perpendicular sides of the tumor. Dosing continued twice daily until control tumors reached a size of 2000 mm^3. Statistical comparisons were made using a 2-way ANOVA with Bonferroni post-test.

For `O=C(CCN1CCOCC1)OCC(C(=O)Nc1nnc(CCCCc2nnc(NC(=O)C(COC(=O)CCN3CCOCC3)c3ccccc3)s2)s1)c1ccccc1` (centres unmarked) [Compound 188, {[5,5′-(butane-1,4-diyl)-bis(1,3,4-thiadiazole-5,2-diyl)]-bis(azanediyl)}-bis(3-oxo-2-phenylpropane-3,1-diyl)-bis(3-morpholinopropanoate)], the IC50 [1] was 2000 nM and the tumor size [2] was “reduced tumor size”.
